melting point: 189 °C
Compound: Cc1cc(Nc2ccnc(Nc3ccc(S(=O)(=O)N(CC4CCCO4)C4CCC(=O)CC4)cc3)n2)ccc1F (stereo not shown) [Example 169]

— patent publication US20080269170A1, “Novel 2,4-Dianilinopyrimidine Derivatives, the Preparation Thereof, Their Use as Medicaments, Pharmaceutical Compositions and, in Particular, as IKK Inhibitors” (sanofi-aventis, priority 2005, published 2008)
